Assay results reported in patent US6455559B1, “Phenylacetamido-pyrazole derivatives, process for their preparation and their use as antitumor agents” (Pharmacia Italia S.p.A., priority 2001, dated 2002).

Biological target: cdk2/Cyclin A (Homo sapiens, UniProt P24941)
Assay: inhibition assay of cdk2/Cyclin A activity (MultiScreen-PH phosphocellulose filter plate, histone H1, P33γ-ATP)
Format: biochemical
Details: tested against cdk2/A; read-out: inhibitory activity, expressed as IC50
Method: The inhibiting activity of putative cdk/cyclin inhibitors and the potency of selected compounds was determined through a method of assay based on the use of the MultiScreen-PH 96 well plate (Millipore), in which phosphocellulose filter paper was placed at each well bottom allowing binding of positive charged substrate after a washing/filtration step.
When a radioactivity labelled phosphate moiety was transferred by the ser/threo kinase to the filter-bound histone, light emitted was measured in a scintillation counter.
The inhibition assay of cdk2/Cyclin A activity was performed according to the following protocol.
Kinase reaction: 1.5 μM histone H1 substrate, 25 μM ATP (0.5 uCi P33γ-ATP), 100 ng Cyclin A/cdk2 complex, 10 μM inhibitor in a final volume of 100 μl buffer (TRIS HCl 10 mM pH 7.5, MgCl2 10 mM, 7.5 mM DTT) were added to each well of a 96 U bottom well plate. After 10 minutes at 37° C. incubation, reaction was stopped by 20 μl EDTA 120 mM.
Capture: 100 μl were transferred from each well MultiScreen plate, to allow substrate binding phosphocellulose filter. […]
Detection: filters were allowed to dry at 37° C., then 100 μl/well scintillant were added and 33P labelled histone H1 was detected by radioactivity counting in the Top-Count instrument.
Results: data were analysed and expressed as % inhibition referred to total activity of enzyme (=100%).

IC50: 8 nM
SMILES: C[C@H](C(=O)Nc1cc(C2CC2)[nH]n1)c1ccc(N2CCOC2=O)cc1 [(2S)-N-(5-cyclopropyl-1H-pyrazol-3-yl)-2-[4-(2-oxo-1,3-oxazolidin-3-yl)phenyl]propanamide]
